According to patent EP0555116B1, “Compositions based on antiseptics and their applications” (HUTCHINSON, priority 1992, dated 1993):

Assays:
S. aureus ATCC 6538 = assay: Growth inhibition test (DGHM, Essai 2, Tables A-C), 72 h at 37°C; non/A/B/C = without or with inactivating substances A, B, C; assay type: cell-based, Staphylococcus aureus
Description: (§1) Un autre essai a été réalisé à partir des solutions suivantes : • 100 ml d'une solution à 0,1 % de digluconate de chlorhexidine (pH 6) et • 100 ml d'une solution à 0,1 % de Bardac 22®.
L'activité de ces solutions, seules ou en combinaison a été plus particulièrement testée vis-à-vis de Staphylococcus aureus ATCC 6538, Escherichia coli ATCC 11229 et Candida albicans ATCC 10231.
(§2) Les tests ont été réalisés conformément au protocole décrit dans le Chapitre I/2.1 et 2.2 de Richtlinien für die Prüfung und Bewertung chemischer Desinfektionsverfahren der DGHM, Stand 1.1., 1981).
Les Tableaux A, B et C illustrent respectivement l'activité bactéricide et fongicide d'une solution aqueuse à 0,1 % de digluconate de chlorhexidine, d'une solution aqueuse à 0,1 % de Bardac 22® et d'un mélange à part égale des deux composés. Les protocoles dont ces Tableaux illustrent les résultats comprennent une incubation de 72 heures à 37°C et l'utilisation, comme témoins, des substances inactivantes suivantes : A : Tween® 80 3 % + lécithine 0,3 % + cystéine 0,1 %; B : Tween® 80 3 % + saponine 3 % + cystéine 0,1 % + histidine 0,1 %; C : Tween® 80 3 % + lécithine 0,3 % + histidine 0,1 % + thiosulfate de sodium 0,5 %.
Dans ces Tableaux, le signe "+" indique une croissance et le signe "-" l'absence de croissance.

[1] = tested on: Candida albicans ATCC 1031; assay: Disinfection time test (Essai 2, Tables D-F), reaction at 22°, subcultures 72 h at 37°C; assay type: cell-based
Description: as §1, §2
Les tests dont les résultats sont illustrés aux Tableaux D, E et F ont été réalisés à une température de réaction de 22° avec une incubation des sous-cultures 72 heures à 37°C avec comme substances inactivantes : Tween® 80 3 % + saponine 3 % + cystéine 0,1 % + histidine 0,1 %; ces Tableaux illustrent respectivement l'activité bactéricide et fongicide d'une solution aqueuse à 0,1 % de digluconate de chlorhexidine, d'une solution aqueuse à 0,1 % de Bardac 22® et d'un mélange à part égale des deux composés et montrent l'action des antiseptiques précités, en fonction du temps de contact, et font apparaître la même synergie d'action de l'association que ci-dessus, dans la mesure où l'association des deux composés permet de diminuer significativement leur concentration, pour l'obtention d'un même effet. TABLEAU D

How did the croissance (S. aureus ATCC 6538; Conc. 0,1 % (vol/vol), A) turn out when `[H]/N=C(\N/C(=N/[H])NCCCCCCNC(=N)NC(=N)Nc1ccc(Cl)cc1)Nc1ccc(Cl)cc1` [Chlorhexidine, digluconate de chlorhexidine, reference compound] was run?
Its croissance is “+”.

And the croissance (S. aureus ATCC 6538; Conc. 0,1 % (vol/vol), B)?
Its croissance is “+”.

And the croissance (S. aureus ATCC 6538; Conc. 0,1 % (vol/vol), C)?
Its croissance is “+”.

And the croissance (S. aureus ATCC 6538; Conc. 0,1 % (vol/vol), non)?
Its croissance is “+”.

And the croissance (S. aureus ATCC 6538; Conc. 0,05 % (vol/vol), A)?
Its croissance is “+”.

What about the croissance (S. aureus ATCC 6538; Conc. 0,5 % (vol/vol), A) of the same compound?
The croissance was “+”.

What about the croissance (S. aureus ATCC 6538; Conc. 0,05 % (vol/vol), B) of the same compound?
The croissance was “+”.

And the croissance (S. aureus ATCC 6538; Conc. 0,5 % (vol/vol), B)?
The croissance was “+”.

What about the croissance (S. aureus ATCC 6538; Conc. 0,05 % (vol/vol), C) of the same compound?
The croissance was “+”.

What about the croissance (S. aureus ATCC 6538; Conc. 0,5 % (vol/vol), C) of the same compound?
Its croissance is “+”.

What about the croissance (S. aureus ATCC 6538; Conc. 0,05 % (vol/vol), non) of the same compound?
Its croissance is “+”.

And the croissance (S. aureus ATCC 6538; Conc. 0,5 % (vol/vol), non)?
The croissance was “-”.

And the croissance (S. aureus ATCC 6538; Conc. 1,0 % (vol/vol), A)?
The croissance was “+”.

What about the croissance (S. aureus ATCC 6538; Conc. 1,0 % (vol/vol), B) of the same compound?
The croissance was “+”.

What about the croissance (S. aureus ATCC 6538; Conc. 1,0 % (vol/vol), C) of the same compound?
Its croissance is “+”.

And the croissance (S. aureus ATCC 6538; Conc. 1,0 % (vol/vol), non)?
The croissance was “-”.

What about the croissance (S. aureus ATCC 6538; Conc. 0,00625 % (vol/vol), A) of the same compound?
The croissance was “+”.

And the croissance (S. aureus ATCC 6538; Conc. 0,00625 % (vol/vol), B)?
Its croissance is “+”.

What about the croissance (S. aureus ATCC 6538; Conc. 0,00625 % (vol/vol), C) of the same compound?
The croissance was “+”.

And the croissance (S. aureus ATCC 6538; Conc. 0,00625 % (vol/vol), non)?
Its croissance is “+”.

And the croissance (S. aureus ATCC 6538; Conc. 0,0125 % (vol/vol), A)?
Its croissance is “+”.

And the croissance (S. aureus ATCC 6538; Conc. 0,0125 % (vol/vol), B)?
Its croissance is “+”.

What about the croissance (S. aureus ATCC 6538; Conc. 0,0125 % (vol/vol), C) of the same compound?
Its croissance is “+”.

What about the croissance (S. aureus ATCC 6538; Conc. 0,0125 % (vol/vol), non) of the same compound?
Its croissance is “+”.

And the croissance (S. aureus ATCC 6538; Conc. 0,025 % (vol/vol), A)?
The croissance was “+”.

And the croissance (S. aureus ATCC 6538; Conc. 0,025 % (vol/vol), B)?
The croissance was “+”.

What about the croissance (S. aureus ATCC 6538; Conc. 0,025 % (vol/vol), C) of the same compound?
Its croissance is “+”.

And the croissance (S. aureus ATCC 6538; Conc. 0,025 % (vol/vol), non)?
The croissance was “+”.

What about the “concentration en substance active inhibant la croissance” value (S. aureus ATCC 6538; antiseptique seul) of the same compound?
Its value is 0,0005%.

What about the croissance ([1]; Conc. 0,1 % (vol/vol), 1 min) of the same compound?
Its croissance is “+”.

And the croissance ([1]; Conc. 0,1 % (vol/vol), 3 min)?
Its croissance is “+”.

What about the croissance ([1]; Conc. 0,1 % (vol/vol), 5 min) of the same compound?
Its croissance is “+”.

And the croissance ([1]; Conc. 0,1 % (vol/vol), 15 min)?
Its croissance is “+”.

What about the croissance ([1]; Conc. 0,1 % (vol/vol), 30 min) of the same compound?
Its croissance is “+”.

And the croissance ([1]; Conc. 0,1 % (vol/vol), 60 min)?
Its croissance is “+”.

What about the croissance ([1]; Conc. 0,05 % (vol/vol), 1 min) of the same compound?
Its croissance is “+”.

And the croissance ([1]; Conc. 0,5 % (vol/vol), 1 min)?
Its croissance is “+”.

And the croissance ([1]; Conc. 0,05 % (vol/vol), 3 min)?
The croissance was “+”.

What about the croissance ([1]; Conc. 0,5 % (vol/vol), 3 min) of the same compound?
Its croissance is “+”.

What about the croissance ([1]; Conc. 0,05 % (vol/vol), 5 min) of the same compound?
Its croissance is “+”.

What about the croissance ([1]; Conc. 0,5 % (vol/vol), 5 min) of the same compound?
Its croissance is “+”.

And the croissance ([1]; Conc. 0,05 % (vol/vol), 15 min)?
Its croissance is “+”.

What about the croissance ([1]; Conc. 0,5 % (vol/vol), 15 min) of the same compound?
Its croissance is “+”.

And the croissance ([1]; Conc. 0,05 % (vol/vol), 30 min)?
The croissance was “+”.

What about the croissance ([1]; Conc. 0,5 % (vol/vol), 30 min) of the same compound?
The croissance was “+”.

And the croissance ([1]; Conc. 0,05 % (vol/vol), 60 min)?
Its croissance is “+”.

And the croissance ([1]; Conc. 0,5 % (vol/vol), 60 min)?
The croissance was “+”.

And the croissance ([1]; Conc. 1 % (vol/vol), 1 min)?
Its croissance is “+”.

What about the croissance ([1]; Conc. 1 % (vol/vol), 3 min) of the same compound?
The croissance was “+”.

What about the croissance ([1]; Conc. 1 % (vol/vol), 5 min) of the same compound?
The croissance was “+”.

And the croissance ([1]; Conc. 1 % (vol/vol), 15 min)?
The croissance was “+”.

What about the croissance ([1]; Conc. 1 % (vol/vol), 30 min) of the same compound?
The croissance was “+”.

What about the croissance ([1]; Conc. 1 % (vol/vol), 60 min) of the same compound?
Its croissance is “-”.

What about the croissance ([1]; Conc. 5 % (vol/vol), 1 min) of the same compound?
Its croissance is “+”.

What about the croissance ([1]; Conc. 5 % (vol/vol), 3 min) of the same compound?
Its croissance is “+”.

And the croissance ([1]; Conc. 5 % (vol/vol), 5 min)?
Its croissance is “+”.

What about the croissance ([1]; Conc. 5 % (vol/vol), 15 min) of the same compound?
The croissance was “+”.

What about the croissance ([1]; Conc. 5 % (vol/vol), 30 min) of the same compound?
Its croissance is “-”.

And the croissance ([1]; Conc. 5 % (vol/vol), 60 min)?
The croissance was “-”.

What about the croissance ([1]; Conc. 10 % (vol/vol), 1 min) of the same compound?
The croissance was “+”.

And the croissance ([1]; Conc. 10 % (vol/vol), 3 min)?
The croissance was “+”.

And the croissance ([1]; Conc. 10 % (vol/vol), 5 min)?
The croissance was “+”.

What about the croissance ([1]; Conc. 10 % (vol/vol), 15 min) of the same compound?
The croissance was “+”.

What about the croissance ([1]; Conc. 10 % (vol/vol), 30 min) of the same compound?
Its croissance is “-”.

And the croissance ([1]; Conc. 10 % (vol/vol), 60 min)?
Its croissance is “-”.

And the croissance ([1]; Conc. 25 % (vol/vol), 1 min)?
The croissance was “+”.

What about the croissance ([1]; Conc. 25 % (vol/vol), 3 min) of the same compound?
The croissance was “+”.

And the croissance ([1]; Conc. 25 % (vol/vol), 5 min)?
Its croissance is “+”.

What about the croissance ([1]; Conc. 25 % (vol/vol), 15 min) of the same compound?
Its croissance is “-”.

What about the croissance ([1]; Conc. 25 % (vol/vol), 30 min) of the same compound?
The croissance was “-”.

What about the croissance ([1]; Conc. 25 % (vol/vol), 60 min) of the same compound?
The croissance was “-”.
